Data reported in patent US6737383B1, “Herbicidal oxadiazolidines” (priority 1999, dated 2004).

Key:
[1] = tested on: winter wheat; experiment: Test E winter wheat; assay type: in vivo, Triticum aestivum; details: Postemergence
Summary of the method: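 Greenhouse test: for postemergence, foliar application at 1- to 4-leaf stage; compound in non-phytotoxic solvent with surfactant. Rating is visual, relative to untreated controls, about 21 to 28 days after treatment.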

[2] = tested on: winter barley; experiment: Test E winter barley; assay type: in vivo, Hordeum vulgare; details: Preemergence
[3] = tested on: purple nutsedge; experiment: Test D purple nutsedge; assay type: in vivo, Cyperus rotundus; details: Preemergence, 0 to 100 scale
Summary of the method: (§1)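 Weed seeds planted in sandy loam; species kept apart in individual pots or compartments. Preemergence tests: treatment to soil surface within one day. Greenhouse growth, then visual injury scoring at 14–21 days (0–100).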

[4] = tested on: large crabgrass; experiment: Test D large crabgrass; assay type: in vivo, Digitaria sanguinalis; details: Preemergence, 0 to 100 scale
Summary of the method: as §1

[5] = tested on: crabgrass; experiment: Test B pre/postemergence crabgrass; assay type: in vivo, Digitaria sanguinalis
Summary of the method: (§2)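 Test chemicals in a non-phytotoxic solvent mixture with surfactant were sprayed preemergence onto planted seeds and postemergence onto plants 2 to 18 cm tall (1- to 4-leaf stage). After twelve to sixteen days in a greenhouse, injury was visually rated against untreated controls from 0 (no effect) to 10 (complete control).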

[6] = tested on: morningglory; experiment: Test B pre/postemergence morningglory; assay type: in vivo, Ipomoea hederacea
Summary of the method: as §2

[7] = tested on: green foxtail; experiment: Test E green foxtail; assay type: in vivo, Setaria viridis; details: Preemergence
[8] = tested on: wild oat; experiment: Test E wild oat; assay type: in vivo, Avena fatua; details: Preemergence, 0 to 100 scale where 0 is no effect and 100 is complete control
[9] = tested on: common pursiane; experiment: Test D common purslane; assay type: in vivo, Portulaca oleracea; details: Preemergence, 0 to 100 scale
Summary of the method: as §1

[10] = tested on: blackgrass; experiment: Test B pre/postemergence blackgrass; assay type: in vivo, Alopecurus myosuroides
Summary of the method: as §2

[11] = tested on: blackgrass; experiment: Test E blackgrass; assay type: in vivo, Alopecurus myosuroides; details: Preemergence
[12] = tested on: bamyardgrass; experiment: Test B flood test barnyardgrass; assay type: in vivo, Echinochloa crus-galli
Summary of the method: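 Read-out is a visual response score from 0 (no effect) to 10 (complete control), assigned by comparison with untreated controls. Treatment was applied at the 2-leaf stage, and plants stayed in the greenhouse for twelve to sixteen days before scoring.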

[13] = tested on: winter wheat; experiment: Test E winter wheat; assay type: in vivo, Triticum aestivum; details: Preemergence
[14] = tested on: Italian ryegrass; experiment: Test E Italian ryegrass; assay type: in vivo, Lolium multiflorum; details: Preemergence
[15] = tested on: Spanishneedles; experiment: Test D Spanishneedles; assay type: in vivo, Bidens bipinnata; details: Preemergence, 0 to 100 scale
Summary of the method: as §1

[16] = Rate 500 g/ha, 0 to 100 scale where 0 is no effect and 100 is complete control
[17] = Rate 1000 g/ha, 0 to 100 scale where 0 is no effect and 100 is complete control
[18] = Rate 16 g/ha, 0 no injury, 100 complete control
[19] = Rate 32 g/ha, 0 no injury, 100 complete control
[20] = Rate 64 g/ha, 0 no injury, 100 complete control
[21] = Rate 125 g/ha, 0 no injury, 100 complete control
[22] = Postemergence, Rate 62 g/ha, scale 0 to 10, 0 is no effect, 10 is complete control
[23] = Postemergence, Rate 250 g/ha, scale 0 to 10, 0 no effect, 10 complete control
[24] = Preemergence, Rate 62 g/ha, scale 0 to 10, 0 is no effect, 10 is complete control
[25] = Preemergence, Rate 125 g/ha, scale 0 to 10 (0 no effect, 10 complete control)
[26] = Preemergence, Rate 250 g/ha, scale of 0 to 10 where 0 is no effect and 10 is complete control
[27] = Preemergence, Rate 500 g/ha, scale 0 (no effect) to 10 (complete control)
[28] = Rate 125 g/ha, Postemergence, scale 0 to 10, 0 no effect, 10 complete control
[29] = Rate 500 g/ha, Postemergence, 0 to 10 scale (0 no effect, 10 complete control)

Cc1cccc(C)c1-n1c(=O)on(C(=O)N(c2ccccc2)C(C)C)c1=O [Compound 46]
Plant response rating, Wheat (winter) ([1]; Rate 250 g/ha, 0 to 100 scale (0 no effect, 100 complete control)): 60
Plant response rating, Wheat (winter) ([1]; Rate 1000 g/ha, 0 to 100 scale, 0 is no effect and 100 is complete control): 70
Plant response rating, Wheat (winter) ([1]; Rate 500 g/ha, 0 to 100 scale, 0 no effect, 100 complete control): 70
Plant response rating, Barley (winter) ([2]; Rate 250 g/ha, 0 to 100 scale): 30
Plant response rating, Barley (winter) [2, 16]: 40
Plant response rating, Barley (winter) [2, 17]: 50
Plant response rating, Purple nutsedge [3, 18]: 0
Plant response rating, Purple nutsedge [3, 19]: 0
Purple nutsedge plant response rating [3, 20]: 0
Purple nutsedge plant response rating [3, 21]: 0
Plant response rating, Purple nutsedge ([3]; Rate 250 g/ha): 0
Plant response rating, Purple nutsedge ([3]; Rate 500 g/ha): 0
Plant response rating, Large crabgrass [4, 18]: 0
Plant response rating, Large crabgrass [4, 19]: 20
Plant response rating, Large crabgrass [4, 20]: 40
Plant response rating, Large crabgrass [4, 21]: 98
Plant response rating, Large crabgrass ([4]; Rate 250 g/ha): 100
Plant response rating, Large crabgrass ([4]; Rate 500 g/ha): 100
Crabgrass plant response rating [5, 22]: 0
Crabgrass plant response rating [5, 23]: 3
Plant response rating, Crabgrass [5, 24]: 1
Plant response rating, Crabgrass [5, 25]: 4
Plant response rating, Crabgrass [5, 26]: 10
Crabgrass plant response rating [5, 27]: 10
Crabgrass plant response rating [5, 28]: 0
Crabgrass plant response rating [5, 29]: 3
Morningglory plant response rating [6, 22]: 0
Morningglory plant response rating [6, 23]: 1
Plant response rating, Morningglory [6, 24]: 0
Plant response rating, Morningglory [6, 25]: 0
Plant response rating, Morningglory [6, 26]: 0
Morningglory plant response rating [6, 27]: 0
Morningglory plant response rating [6, 28]: 0
Morningglory plant response rating [6, 29]: 2
Plant response rating, Green foxtail ([7]; Rate 250 g/ha, 0 to 100 scale): 60
Plant response rating, Green foxtail [7, 16]: 85
Plant response rating, Green foxtail [7, 17]: 80
Plant response rating, Wild oat ([8]; Rate 500 g/ha): 60
Plant response rating, Wild oat ([8]; Rate 1000 g/ha): 70
Plant response rating, C. purslane [9, 18]: 0
Plant response rating, C. purslane [9, 19]: 0
Plant response rating, C. purslane [9, 20]: 0
Plant response rating, C. purslane [9, 21]: 0
Plant response rating, C. purslane ([9]; Rate 250 g/ha): 0
Plant response rating, C. purslane ([9]; Rate 500 g/ha): 0
Blackgrass plant response rating [10, 22]: 0
Blackgrass plant response rating [10, 23]: 6
Plant response rating, Blackgrass [10, 24]: 0
Plant response rating, Blackgrass [10, 25]: 0
Plant response rating, Blackgrass [10, 26]: 2
Blackgrass plant response rating [10, 27]: 7
Blackgrass plant response rating [10, 28]: 0
Blackgrass plant response rating [10, 29]: 6
Plant response rating, Blackgrass ([11]; Rate 250 g/ha, 0 to 100 scale): 40
Plant response rating, Blackgrass [11, 16]: 55
Plant response rating, Blackgrass [11, 17]: 70
Barnyardgrass plant response rating [12, 22]: 0
Barnyardgrass plant response rating ([12]; Rate 125 g/ha, Postemergence section (flood test species), scale 0 to 10, 0 no effect, 10 complete control): 0
Barnyardgrass plant response rating ([12]; Rate 250 g/ha, headed Pre-emergence (flood test species), scale 0 to 10 (0 no effect, 10 complete control)): 0
Barnyardgrass plant response rating ([12]; Rate 500 g/ha, Postemergence section of Table B, 0 to 10 scale (0 no effect, 10 complete control)): 0
Plant response rating, Barnyardgrass ([12]; Rate 500 g/ha, headed Pre-emergence (flood test species), scale 0 to 10 (0 no effect, 10 complete control)): 0
Barnyardgrass plant response rating ([12]; Rate 1000 g/ha, Pre-emergence (as headed), scale 0 to 10): 0
Barnyardgrass plant response rating ([12]; Rate 2000 g/ha, Pre-emergence (as headed), scale 0 to 10, 0 no effect, 10 complete control): 9
Barnyardgrass plant response rating ([12]; flood test, listed under Postemergence, Rate 250 g/ha, scale 0 to 10, 0 no effect, 10 complete control): 0
Plant response rating, Wheat (winter) ([13]; Rate 250 g/ha, 0 to 100 scale): 40
Plant response rating, Wheat (winter) [13, 16]: 70
Plant response rating, Wheat (winter) [13, 17]: 50
Plant response rating, I. Ryegrass ([14]; Rate 250 g/ha, 0 to 100 scale): 50
Plant response rating, I. Ryegrass [14, 16]: 65
Plant response rating, I. Ryegrass [14, 17]: 70
Plant response rating, Spanishneedles [15, 18]: 0
Plant response rating, Spanishneedles [15, 19]: 0
Spanishneedles plant response rating [15, 20]: 0
Spanishneedles plant response rating [15, 21]: 10
Plant response rating, Spanishneedles ([15]; Rate 500 g/ha): 20
